Data published in patent US20220290140A1, “TRANS-CYCLOOCTENE LABELED ANTISENSE OLIGONUCLEOTIDES, RADIO LABELED TETRAZINE AND METHODS” (Biogen MA Inc., priority 2019, published 2022).
Read-outs that look alike come from different tables or passages of the source.

Key:
[1] = Pretargeted PET/CT imaging, ASO-TCO i.t. then 18F-Tz i.v.; format: in vivo, Sprague-Dawley rats
Protocol: Sprague-Dawley rats were administered ASO-TCO intrathecally (2.5 mM in 30 μL saline). After either 24 hours (center) or 168 hours (right), those rats were then injected I.V. with ^18F-537-Tz (22-30 MBq; […]; 0.2 nmol). Rats were imaged by PET-CT from 75-90 min. post-injection of radiotracer. Control rats (left) received saline only.
FIG. 5 is a bar graph showing Regions of Interest (ROI) drawn from the PET data. Ratios were obtained of % ID/g in tissue of interest (brain and spine) to the reference region (heart). […] Lanes in bar graph depicted from left to right: ASO-TCO (brain:heart); Naive (brain:heart); ASO-TCO (spine:heart); and Naive (spine:heart).
Rats were administered Malat1 ASO-TCO intrathecally (I.T.) and 24 hours later were given ^18F-Tz intravenously (I.V.). They were then imaged 75-90 p.i. by PET/CT.
The same uptake is not seen in rats that received only the ^18F-Tz radiotracer.

[2] = Parent fraction and blood kinetics of tracer in arterial plasma in NHP; format: in vivo, cynomolgus monkey
Protocol: (§1) Dynamic PET scans (0-120 min) with arterial input function were performed on a female cynomolgous monkey using ^18F-537-Tz (5.7±0.7 mCi, 0.14±0.12 μg) in order to evaluate the tracer's efficacy in non-human primates. Parent fraction of tracer in arterial plasma was determined by extracting tracer using acetonitrile and analysis by radioHPLC. Baseline scans were performed first, measuring tracer kinetics in the brain. Malat1 ASO-TCO (20 mg in 2.4 mL aCSF) was then injected intrathecally under fluoroscopic guidance and ^18F-537-Tz PET/CT imaging performed at 24 h and 168 h under isoflurane anesthesia. Imaging data were co-registered to a cyno brain atlas, and TAC in subregions of interest were derived from them. Static PET/CT scans were acquired in each imaging session, with the field of view (FOV) oriented to capture the spine. This scan took place 130-160 min p.i. of tracer, and an ROI drawn over the spinal cord with muscle as a reference region.

[3] = design: species or system mice; details: mouse, in vivo, 10 min
Text: (§2) As pretargeting is a 2-component system, an ^18F-Tz was developed to be CNS-penetrant based on cnsPET-MPO modeling (Zhang, L., et al. (2018). J Med Chem 61(8): 3296-3308).

[4] = Dynamic PET scans of brain, baseline, homologous block and pretargeted; format: in vivo, rat
Protocol: (§3) Dynamic PET scans were performed with arterial sampling to determine parent fraction of the tracer ^18F-537-Tz in baseline and pretargeted scans. Baseline imaging with a comparison to a homologous block with non-radioactive compound ^19F-537-Tz at 1 mg/kg was performed on a single rat, where non-radioactive compound was administered i.v. 5 min before injection of tracer. Next, three additional rats were imaged at baseline with no ASO-TCO administered. A final three rats received pretargeted scans and were dosed intrathecally with 0.56 mg Malat1 ASO-TCO in 30 μL saline followed by a 40 μL saline flush. 24 h after injection of the ASO, ^18F-537-Tz was injected intravenously and dynamic PET imaging performed.
Time-activity-curves (TAC) from 0 to 60 min showing the brain subregion distribution of ^18F-537-Tz in rat 2 at baseline and following iv administration of 1 mg/kg of unlabeled […] are illustrated in FIG. 9. […] The average brain regional SUV from 40-60 min of the scans were similar in the baseline and homologous block scans (Table 1).
PET/CT images with summed radioactivity from 0 to 60 min showing the brain distribution of ^18F-537-Tz in the 4 rats scanned at baseline and the 3 rats scanned 24 h after i.t. administration of ASO-TCO are illustrated in FIG. 10. There was an increase in brain uptake of radioactivity observed in all the ASO-TCO dosed rats. There was an increase of ca. […]

[5] = Microsome stability; format: in vitro ADME; details: microsomes; read-out: Microsome Stability t1/2
[6] = Static PET/CT of upper spine and CSF; format: in vivo, rat
Text: The static PET/CT images of ^18F-537-Tz uptake in the upper rat spine are illustrated in FIG. 12. […] There was a 10% and 15% increase in the radioactivity uptake in the spine and CSF when comparing the baseline and post ASO-TCO dosed rats (Table 4).

[7] = Plasma protein binding (PPB); format: in vitro ADME; details: rat, read-out: PPB (rat) unbound
Text: as §2

[8] = Static PET/CT of spine in NHP, spinal cord ROI with muscle as reference; format: in vivo; details: cynomolgus monkey, 24 h post-ASO scan
Protocol: as §1

[9] = Dynamic PET/CT of brain in NHP, baseline and post Malat1 ASO-TCO; format: in vivo; details: cynomolgus monkey
Protocol: The pretargeting PET tracer ^18F-537-Tz was tested in a cynomolgus monkey, including baseline scans and a homologous blocking scan. The monkey was then dosed with Malat1 ASO-TCO and scanned again at 24 h and 168 h.
as §1

[10] = Brain protein binding (BPB); format: in vitro ADME
Text: as §2

[11] = biological target: T1, BCRP (Homo sapiens, UniProt Q9UNQ0); test: in vitro; format: in vitro ADME; details: dog
T1 construct: expressed in transfected cells; host or cells: MDCK (canine kidney) cells expressing BCRP
T1 sequence (Q9UNQ0 1-655): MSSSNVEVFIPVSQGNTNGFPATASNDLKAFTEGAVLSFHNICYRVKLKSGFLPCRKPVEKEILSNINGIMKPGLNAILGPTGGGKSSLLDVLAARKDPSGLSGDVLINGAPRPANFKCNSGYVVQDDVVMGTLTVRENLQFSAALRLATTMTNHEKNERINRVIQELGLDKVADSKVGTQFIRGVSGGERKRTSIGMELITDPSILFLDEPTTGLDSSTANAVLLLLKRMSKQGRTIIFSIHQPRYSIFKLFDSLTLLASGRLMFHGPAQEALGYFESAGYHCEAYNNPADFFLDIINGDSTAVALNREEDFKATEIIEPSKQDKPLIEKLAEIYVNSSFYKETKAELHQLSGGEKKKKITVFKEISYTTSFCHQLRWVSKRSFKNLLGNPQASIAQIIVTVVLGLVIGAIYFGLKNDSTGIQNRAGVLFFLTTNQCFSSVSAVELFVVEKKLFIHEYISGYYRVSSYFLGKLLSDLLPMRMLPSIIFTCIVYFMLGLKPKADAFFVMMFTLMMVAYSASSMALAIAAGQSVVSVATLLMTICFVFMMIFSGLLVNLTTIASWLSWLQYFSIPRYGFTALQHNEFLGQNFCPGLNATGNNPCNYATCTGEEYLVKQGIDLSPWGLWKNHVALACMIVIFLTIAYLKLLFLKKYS
Text: as §2

[12] = rat, in vivo, 1 mg/kg
Protocol: as §3
A metabolite analysis method was developed to enable the tracer kinetic modelling using metabolite corrected plasma activity as an input function. The plasma radioactivity extraction efficiency for all samples was determined and was satisfactory using 1:1 plasma:ACN. The recovery from the HPLC column of the injected radioactivity was determined for each plasma extract injected. Good recovery of the injected radioactivity from the HPLC column was obtained for each plasma extract injection. For the 3 baseline scans, the parent compound fraction of the total activity found in plasma was 86-90% at 5 min, and this fraction decreased to 66-74% at 60 min after ^18F-537-Tz injection. […]

[13] = rats treated with ASO-TCO vs control rats that received only tracer, P<0.005
[14] = rat Subject 2, Baseline scan, 40-60 min p.i. of tracer
[15] = rat Subject 2, Postdose (homologous block, 1 mg/kg non-radioactive compound i.v. 5 min before tracer), 40-60 min p.i.
[16] = rats, Baseline group (no ASO-TCO), 40-60 min p.i. of tracer
[17] = rats, Baseline group, 40-60 min p.i. of tracer
[18] = rats, Pretargeted group (0.56 mg Malat1 ASO-TCO i.t. 24 h before tracer), 40-60 min p.i.
[19] = rats, Pretargeted group (Malat1 ASO-TCO i.t. 24 h before tracer), 40-60 min p.i.
[20] = rats, Pretargeted vs Baseline, 40-60 min p.i.
[21] = baseline vs post ASO-TCO dosed rats
[22] = rats, Baseline group, ca. 70-80 min after tracer injection

O=C(Cc1ccc(-c2nncnn2)cc1)NCC[18F] [Compound 1]
uptake of tracer in brain and spinal cord (PET/CT images) ([1]; rats given Malat1 ASO-TCO I.T. 24 hours before tracer I.V., imaged 75-90 p.i.): specific uptake
Brain-to-heart ratio from ROIs [1, 13]: significantly higher
spine-to-heart ratio from ROIs [1, 13]: significantly higher
Parent fraction, tracer intact ([2]; cynomolgus monkey arterial plasma, over the course of imaging): > 80%
Blood kinetics of the tracer ([2]; cynomolgus monkey, over 30 min): uptake and rapid clearance
brain uptake [3]: 1.7±0.9 % ID
SUV Plasma (40-60 min) ([4]; rat Subject 2, Baseline scan): 1.12
SUV Brain [4, 14]: 1.29
SUV Cerebellum [4, 14]: 1.38
SUV Cortex [4, 14]: 1.07
SUV Frontal Cortex [4, 14]: 1.16
SUV Hippocampus [4, 14]: 1.28
SUV Hypothalamus [4, 14]: 1.45
SUV Thalamus [4, 14]: 1.46
SUV Plasma (40-60 min) ([4]; rat Subject 2, Postdose (homologous block, 1 mg/kg non-radioactive compound i.v. 5 min before tracer)): 1.45
SUV Brain [4, 15]: 1.22
SUV Cerebellum [4, 15]: 1.38
SUV Cortex [4, 15]: 1.10
SUV Frontal Cortex [4, 15]: 1.24
SUV Striatum [4, 15]: 1.40
SUV Thalamus [4, 15]: 1.52
SUV Hippocampus ([4]; rat, in vivo): 1.43
SUV Striatum ([4]; rat, in vivo): 1.42
SUV Hippocampus ([4]; rat, in vivo, iv, 1 mg/kg): 1.27
SUV Hypothalamus ([4]; rat, in vivo, iv, 1 mg/kg): 1.43
SUV Cerebellum [4, 16]: 1.52
SUV Cortex [4, 16]: 1.25
SUV Frontal Cortex [4, 16]: 1.33
SUV Hypothalamus [4, 16]: 1.62
SUV Plasma [4, 16]: 1.22
SUV Striatum [4, 16]: 1.52
SUV Thalamus [4, 16]: 1.64
SUV Whole Brain [4, 16]: 1.45
SUV normalized to plasma, Cerebellum [4, 17]: 1.27
SUV normalized to plasma, Cortex [4, 17]: 1.05
SUV normalized to plasma, Frontal Cortex [4, 17]: 1.11
SUV normalized to plasma, Hippocampus [4, 17]: 1.2
SUV normalized to plasma, Hypothalamus [4, 17]: 1.36
SUV normalized to plasma, Striatum [4, 17]: 1.27
SUV normalized to plasma, Thalamus [4, 17]: 1.37
SUV normalized to plasma, Whole Brain [4, 17]: 1.21
SUV Cerebellum [4, 18]: 1.9
SUV Cortex [4, 18]: 1.66
SUV Frontal Cortex [4, 18]: 1.66
SUV Hippocampus [4, 18]: 1.85
SUV Hypothalamus [4, 18]: 1.89
SUV Plasma [4, 18]: 1.18
SUV Striatum [4, 18]: 1.77
SUV Thalamus [4, 18]: 1.95
SUV Whole Brain [4, 18]: 1.79
SUV normalized to plasma, Cerebellum [4, 19]: 1.67
SUV normalized to plasma, Cortex [4, 19]: 1.42
SUV normalized to plasma, Frontal Cortex [4, 19]: 1.43
SUV normalized to plasma, Hippocampus [4, 19]: 1.61
SUV normalized to plasma, Hypothalamus [4, 19]: 1.63
SUV normalized to plasma, Striatum [4, 19]: 1.47
SUV normalized to plasma, Thalamus [4, 19]: 1.61
SUV normalized to plasma, Whole Brain [4, 19]: 1.53
% Change of SUV normalized to plasma, Cerebellum ([4]; rats, Pretargeted vs Baseline): 31%
% Change of SUV normalized to plasma, Cortex ([4]; rats, Pretargeted vs Baseline): 35%
% Change of SUV normalized to plasma, Frontal Cortex ([4]; rats, Pretargeted vs Baseline): 29%
% Change of SUV normalized to plasma, Hippocampus ([4]; rats, Pretargeted vs Baseline): 34%
% Change of SUV normalized to plasma, Hypothalamus ([4]; rats, Pretargeted vs Baseline): 20%
% Change of SUV normalized to plasma, Striatum ([4]; rats, Pretargeted vs Baseline): 16%
% Change of SUV normalized to plasma, Thalamus ([4]; rats, Pretargeted vs Baseline): 18%
% Change of SUV normalized to plasma, Whole Brain ([4]; rats, Pretargeted vs Baseline): 26%
% Change of SUV Cerebellum [4, 20]: 25%
% Change of SUV Cortex [4, 20]: 33%
% Change of SUV Frontal Cortex [4, 20]: 25%
% Change of SUV Hippocampus [4, 20]: 29%
% Change of SUV Hypothalamus [4, 20]: 17%
% Change of SUV Striatum [4, 20]: 16%
% Change of SUV Thalamus [4, 20]: 19%
% Change of SUV Whole Brain [4, 20]: 23%
brain entry of tracer ([4]; rats, highest uptake in thalamus/hypothalamus, lowest in cortical regions): readily entered the brain
half-life [5]: 1.4 h
increase in radioactivity uptake in the CSF [6, 21]: 15%
increase in radioactivity uptake in the spine [6, 21]: 10%
Radioactivity uptake CSF [6, 22]: 1.18
Radioactivity uptake Spine [6, 22]: 0.95
Radioactivity uptake Spine ([6]; rats, Pretargeted group (i.t. dosing of ASO-TCO), ca. 70-80 min after tracer injection): 1.04
% Change of radioactivity uptake CSF ([6]; rats, Pretargeted vs Baseline): 16%
% Change of radioactivity uptake Spine ([6]; rats, Pretargeted vs Baseline): 9%
fraction unbound [7]: 0.375
spinal cord SUV normalized to muscle, higher signal than baseline scan [8]: ~25%
uptake of the tracer in the brain, baseline PET/CT ([9]; 2-hour scan): good uptake
SUV uptake, baseline vs post-ASO scans (whole brain ROI) ([9]; 24 h and 7 days after Malat1 ASO-TCO i.t.): No significant different
difference in SUV between baseline and pretargeted scans in the brain ([9]; normalized TACs, final timepoint): ~10%
BPB (rat) unbound [10]: 51%
efflux ratio [11]: 0.51
parent compound fraction of total activity in plasma ([12]; 5 min): 82%
parent compound fraction of total activity in plasma ([12]; 60 min): 62%
